Test results: patent publication US8969345B2, “Dibenzooxepin derivative” (Kyowa Hakko Kirin Co., Ltd., priority 2011, dated 2015)

How the values were obtained:
[1] = Metabolic stability evaluation in human liver microsome; format: in vitro ADME; conditions: liver microsomes, pH 7.4; human liver microsome 0.2 mg/mL protein, test compound 1 μmol/L, β-NADPH, 37° C., 30 min; average of two samples; read-out: hCLint (converted)
Protocol: Human liver microsome (pool of 50 donors) was purchased from XenoTech. A reaction mixture containing phosphate buffer (100 mmol/L, pH 7.4), ethylenediamine tetraacetic acid (0.1 mmol/L), magnesium chloride (6 mmol/L), human liver microsome (0.2 mg/mL protein) and test compound (1 μmol/L) was prepared. The reaction mixture was preincubated at 37° C. for 5 min, β-NADPH (1 mmol/L) was added and the mixture was incubated at 37° C. for 30 min. The protein was removed with acetonitrile from the sample after the reaction and the sample was measured by LC-MS/MS. The ratio of the organic solvent in the reaction mixture was set to about 0.5%, and the reaction was performed in 2 samples.
The elimination rate constant (ke) was calculated from the linear regression of the logarithm plot of the residual ratio of the test compound and at 30 min after the reaction, and the liver inherent clearance (Cint) was calculated by the following formula.
[formula] ke: elimination rate constant (1/h) a: concentration (mg/mL) of liver microsome in the reaction mixture b: liver microsome amount per liver unit weight (32.3 mg/g liver) c: liver weight per unit body weight (25.7 g liver/kg body weight) Each test compound was tested in two samples, and the average thereof was calculated.

[2] = target: T1, GAL4-PPAR γ chimeric nuclear receptor (human PPAR γ ligand binding domain) (Homo sapiens, UniProt P37231); assay: PPAR γ transactivation assay by transient gene transfer (GAL4-PPAR γ chimeric receptor, luciferase reporter, HEK293EBNA cells); format: cell-based; conditions: concentration showing 50% of efficacy (maximum activity rate relative to pioglitazone = 100%), 24 hr
T1 construct: expressed in transfected cells; host or cells: HEK293EBNA cells, transient transfection with SuperFect
T1 sequence (P37231 174-475 isoform P37231-2): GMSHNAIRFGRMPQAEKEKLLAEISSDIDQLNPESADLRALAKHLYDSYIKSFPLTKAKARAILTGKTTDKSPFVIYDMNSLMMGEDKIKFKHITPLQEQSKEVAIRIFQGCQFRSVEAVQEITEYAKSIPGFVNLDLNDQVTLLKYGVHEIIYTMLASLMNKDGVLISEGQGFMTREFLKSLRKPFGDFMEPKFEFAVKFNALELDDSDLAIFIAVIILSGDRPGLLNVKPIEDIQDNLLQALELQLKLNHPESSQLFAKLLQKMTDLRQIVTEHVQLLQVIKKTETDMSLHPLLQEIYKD
Protocol: The agonist activity of the test compound to PPAR γ was determined by a transactivation assay method using a chimeric nuclear receptor of a DNA binding region of a yeast transcription factor GAL4 and a PPAR γ ligand binding region. Specifically, the PPAR γ agonist activity of the test compound was evaluated by the following method based on the method of Lehmann et al. (J Biol. Chem., 1995, vol. 270, page 12953).
HEK293EBNA cells cultured in Dulbecco's Modified Eagle medium (Invitrogen) containing 10 v/v % fetal bovine serum (Invitrogen) were used. 30 mL of the above-mentioned cells (density: 1×10^5 cells/mL) were inoculated in a […] (Iwaki Glass), and cultured overnight. Using SuperFect Transfection Reagent (QIAGEN), a plasmid expressing a GAL4-PPAR γ chimeric nuclear receptor fusing 174-475 amino acids, which are human PPAR γ ligand binding domain, and 1-147 amino acids, which are GAL4 DNA binding domain, and a reporter plasmid expressing a GAL4 responsive luciferase were transiently introduced into the cells at a proportion of 4:1. After 5 hr from transfection, the cells were detached from the culture dish, and the detached cells (density: 2×10^4 cells/mL) were inoculated by 100 μL in each well of a 96 well white plate (SUMITOMO BAKELITE), and cultured overnight. The medium was removed, the test compound diluted in various concentrations with serum-free Dulbecco's Modified Eagle medium was added by 100 μL, and the mixture was reacted under a 5% carbon dioxide gas stream (5% CO2) at 37° C. for 24 hr. On the other hand, as a positive control, 10 μmol/L of pioglitazone (100 μL) was added, and the mixture was reacted under a 5% carbon dioxide gas stream (5% CO2) at 37° C. for 24 hr. As a substrate of luciferase, 100 μL of Steady-Glo (Promega) was added to each well and the mixture was thoroughly stirred. Immediately thereafter, the chemical luminescence due to luciferase was measured using TopCount NTX (Packard).
The agonist activity (activity rate (%)) of the test compound to PPAR γ was calculated according to the following formula, as a relative activity when the agonist activity on addition of pioglitazone ([…]) was 100%.

Row | CLint scaled at 1 μmol/L [1] [mL/min/kg] | EC50 [2] [nM] | SMILES
1 | 25 | 11.9 | [2H]C([2H])([2H])Oc1cccn2c(Cc3ccc4c(c3)COc3cc(F)ccc3/C4=C(\C)c3noc(=O)[nH]3)c(C3CC3)nc12 [Compound 9h, (E)-3-[1-(8-{[2-cyclopropyl-8-(methoxy-d3)-imidazo[1,2-a]pyridin-3-yl]methyl}-3-fluorodibenzo[b,e]oxepin-11(6H)-ylidene)ethyl]-1,2,4-oxadiazol-5(4H)-one]
2 | 71.7 | 13.9 | C/C(=C1/c2ccc(Cc3c(C4CC4)nc4c(F)cccn34)cc2COc2cc(F)ccc21)c1noc(=O)[nH]1 [Compound 9i, (E)-3-(1-{8-[(2-cyclopropyl-8-fluoroimidazo[1,2-a]pyridin-3-yl)methyl]-3-fluorodibenzo[b,e]oxepin-11(6H)-ylidene}ethyl)-1,2,4-oxadiazol-5(4H)-one]
3 | 102 | 6.4 | C/C(=C1/c2ccc(Cc3c(C4CC4)nc4cc(Cl)ccn34)cc2COc2cc(F)ccc21)c1noc(=O)[nH]1 [Compound 10a, (E)-3-(1-{8-[(7-chloro-2-cyclopropylimidazo[1,2-a]pyridin-3-yl)methyl]-3-fluorodibenzo[b,e]oxepin-11(6H)-ylidene}ethyl)-1,2,4-oxadiazol-5(4H)-one]
4 | 65 | 12.7 | C/C(=C1/c2ccc(Cc3c(C4CC4)nc4cc(F)ccn34)cc2COc2cc(F)ccc21)c1noc(=O)[nH]1 [Compound 10c, (E)-3-(1-{8-[(2-cyclopropyl-7-fluoroimidazo[1,2-a]pyridin-3-yl)methyl]-3-fluorodibenzo[b,e]oxepin-11(6H)-ylidene}ethyl)-1,2,4-oxadiazol-5(4H)-one]
5 | 40 | 5.3 | COCc1nc2cc(Cl)ccn2c1Cc1ccc2c(c1)COc1cc(F)ccc1/C2=C(\C)c1noc(=O)[nH]1 [Compound 10e, (E)-3-{1-(8-{[7-chloro-2-(methoxymethyl)imidazo[1,2-a]pyridin-3-yl]methyl}-3-fluorodibenzo[b,e]oxepin-11(6H)-ylidene)ethyl}-1,2,4-oxadiazol-5(4H)-one]
6 | 35 | 13.9 | C/C(=C1/c2ccc(Cc3c(C)nc4cc(C(F)(F)F)ccn34)cc2COc2cc(F)ccc21)c1noc(=O)[nH]1 [Compound 11b, (E)-3-[1-(3-fluoro-8-{[2-methyl-7-(trifluoromethyl)imidazo[1,2-a]pyridin-3-yl]methyl}dibenzo[b,e]oxepin-11(6H)-ylidene)ethyl]-1,2,4-oxadiazol-5(4H)-one]
7 | 90 | 19 | C/C(=C1/c2ccc(Cc3c(C4CC4)nc4nc(C(F)(F)F)ccn34)cc2COc2cc(F)ccc21)c1noc(=O)[nH]1 [Compound 11h, (E)-3-[1-(8-{[2-cyclopropyl-7-(trifluoromethyl)imidazo[1,2-a]pyrimidin-3-yl]methyl}-3-fluorodibenzo[b,e]oxepin-11(6H)-ylidene)ethyl]-1,2,4-oxadiazol-5(4H)-one]
8 | 78.3 | 18.8 | O=c1[nH]c(/C(=C2\c3ccc(Cc4c(C5CC5)nc5c(Cl)cccn45)cc3COc3cc(F)ccc32)C2CC2)no1 [Compound 12a, (E)-3-({8-[(8-chloro-2-cyclopropylimidazo[1,2-a]pyridin-3-yl)methyl]-3-fluorodibenzo[b,e]oxepin-11(6H)-ylidene}(cyclopropyl)methyl)-1,2,4-oxadiazol-5(4H)-one]
9 | 65 | 78.2 | O=c1[nH]c(/C(=C2\c3ccc(Cc4c(C5CC5)nc5ccccn45)cc3COc3cc(F)ccc32)C2CC2)no1 [Compound 12c]
10 | 88.3 | 39.9 | C/C(=C1/c2ccc(Cn3c(C(C)C)nc(Cl)c3Cl)cc2COc2cc(F)ccc21)c1noc(=O)[nH]1 [Compound 13c, (E)-3-(1-{8-[(4,5-dichloro-2-isopropyl-1H-imidazol-1-yl)methyl]-3-fluorodibenzo[b,e]oxepin-11(6H)-ylidene}ethyl)-1,2,4-oxadiazol-5(4H)-one]
11 | 26.7 | 36.7 | COCc1nc2cscc2n1Cc1ccc2c(c1)COc1cc(F)ccc1/C2=C(\C)c1noc(=O)[nH]1 [Compound 13d, (E)-3-[1-(3-fluoro-8-{[2-(methoxymethyl)-1H-thieno[3,4-d]imidazol-1-yl]methyl}dibenzo[b,e]oxepin-11(6H)-ylidene)ethyl]-1,2,4-oxadiazol-5(4H)-one]
12 | 65 | 209 | CCCc1nc(C)nc(N2CCC2)c1Cc1ccc2c(c1)COc1cc(F)ccc1/C2=C(\C)c1noc(=O)[nH]1 [Compound 13g, (E)-3-[1-(8-{[4-(azetidin-1-yl)-2-methyl-6-propylpyrimidin-5-yl]methyl}-3-fluorodibenzo[b,e]oxepin-11(6H)-ylidene)ethyl]-1,2,4-oxadiazol-5(4H)-one]
13 | 30 | 15.9 | C/C(=C1/c2ccc(Cc3c(C4CC4)nc4c(C)nccn34)cc2COc2cc(F)ccc21)c1noc(=O)[nH]1 [Compound 14a, (E)-3-(1-{8-[(2-cyclopropyl-8-methylimidazo[1,2-a]pyrazin-3-yl)methyl]-3-fluorodibenzo[b,e]oxepin-11(6H)-ylidene}ethyl)-1,2,4-oxadiazol-5(4H)-one]
14 | 61.7 | 7.4 | CCCc1nc2c(C)nccn2c1Cc1ccc2c(c1)COc1cc(F)ccc1/C2=C(\C)c1noc(=O)[nH]1 [Compound 14d, (E)-3-(1-{3-fluoro-8-[(8-methyl-2-propylimidazo[1,2-a]pyrazin-3-yl)methyl]dibenzo[b,e]oxepin-11(6H)-ylidene}ethyl)-1,2,4-oxadiazol-5(4H)-one]
15 | 28.3 | 130 | C/C(=C1/c2ccc(Cc3c(C)nc4cc(C5CC5)ccn34)cc2COc2cc(F)ccc21)c1noc(=O)[nH]1 [Compound 14g, (E)-3-(1-{8-[(7-cyclopropyl-2-methylimidazo[1,2-a]pyridin-3-yl)methyl]-3-fluorodibenzo[b,e]oxepin-11(6H)-ylidene}ethyl)-1,2,4-oxadiazol-5(4H)-one]
16 | 36.7 | 304 | C#Cc1ccn2c(Cc3ccc4c(c3)COc3cc(F)ccc3/C4=C(\C)c3noc(=O)[nH]3)c(C)nc2c1 [Compound 14h, (E)-3-(1-{8-[(7-ethynyl-2-methylimidazo[1,2-a]pyridin-3-yl)methyl]-3-fluorodibenzo[b,e]oxepin-11(6H)-ylidene}ethyl)-1,2,4-oxadiazol-5(4H)-one]
17 | 127 | 239 | C/C(=C1/c2ccc(Cc3c(C#N)nc4cc(F)ccn34)cc2COc2cc(F)ccc21)c1noc(=O)[nH]1 [Compound 14i, (E)-3-(1-{8-[(2-cyano-7-fluoroimidazo[1,2-a]pyridin-3-yl)methyl]-3-fluorodibenzo[b,e]oxepin-11(6H)-ylidene}ethyl)-1,2,4-oxadiazol-5(4H)-one]
18 | 11.3 | 83 | C/C(=C1/c2ccc(Cc3c(C4CCOC4)nc4cc(F)ccn34)cc2COc2cc(F)ccc21)c1noc(=O)[nH]1 (stereo not drawn) [Compound 14j, (E)-3-(1-{8-[(7-fluoro-2-(tetrahydrofuran-3-yl)imidazo[1,2-a]pyridin-3-yl)methyl]-3-fluorodibenzo[b,e]oxepin-11(6H)-ylidene}ethyl)-1,2,4-oxadiazol-5(4H)-one]
